Test results as given in US20190307776A1, “AZA-S[…] HUMAN IMMUNODEFICIENCY VIRUS REPLICATION” (priority 2016, published 2019).

These molecules were tested on recombinant NL4-3 virus (assay: HIV cell culture assay). Conditions: Human immunodeficiency virus 1, NL43, MT2.
Assay type: cell-based
Experimental: HIV cell culture assay—MT-2 cells and 293T cells were obtained from the NIH AIDS Research and Reference Reagent Program. MT-2 cells were propagated in RPMI 1640 media supplemented with 10% heat inactivated fetal bovine serum, 100 […]. The 293T cells were propagated in DMEM media supplemented with 10% heat inactivated fetal bovine serum (FBS), 100 units/ml penicillin G and 100 μg/ml streptomycin. The proviral DNA clone of NL4-3 was obtained from the NIH AIDS Research and Reference Reagent Program. A recombinant NL4-3 virus, in which a section of the nef gene from NL4-3 was replaced with the Renilla luciferase gene, was used as a reference virus. In addition, residue Gag P373 was converted to P373S. Briefly, the recombinant virus was prepared by transfection of the altered proviral clone of NL4-3. Transfections were performed in 293T cells using LipofectAMINE PLUS from Invitrogen (Carlsbad, Calif.), according to manufacturer's instruction. The virus was titered in MT-2 cells using luciferase enzyme activity as a marker. Luciferase was quantitated using the Dual Luciferase kit from Promega (Madison, Wis.), with modifications to the manufacturer's protocol. The diluted Passive Lysis solution was pre-mixed with the re-suspended Luciferase Assay Reagent and the re-suspended Stop & Glo Substrate (2:1:1 ratio). Fifty (50) μL of the mixture was added to each aspirated well on assay plates and luciferase activity was measured immediately on a Wallac TriLux (Perkin-Elmer). Antiviral activities of inhibitors toward the recombinant virus were quantified by measuring luciferase activity in cells infected for 4-5 days with NLRluc recombinants in the presence serial dilutions of the inhibitor.

Row | SMILES | EC50 [nM]
1 | C=C(C)[C@@H]1CC[C@]2(CO)CC[C@]3(C)[C@H](CC[C@@H]4[C@@]5(C)CCN(S(=O)(=O)c6ccc(/C=C/C(=O)O)cc6)C(C)(C)C5CC[C@]43C)[C@@H]12 (stereo partly drawn) [Example 18, (E)-3-(4-(((6aR,6bR,8aS,11R,11aR,11bR,13aR,13bR)-8a-(hydroxymethyl)-4,4,6a,6b,13b-pentamethyl-11-(prop-1-en-2-yl)icosahydro-3H-cyclopenta[5,6]naphtho[2,1-f]isoquinolin-3-yl)sulfonyl)phenyl)acrylic acid] | 4200
2 | C=C(C)[C@@H]1CC[C@]2(CO)CC[C@]3(C)[C@H](CC[C@@H]4[C@@]5(C)CCN(S(=O)(=O)c6ccc(CC(=O)O)cc6)C(C)(C)C5CC[C@]43C)[C@@H]12 (stereo partly drawn) [Example 19, 2-(4-(((6aR,6bR,8aS,11R,11aR,11bR,13aR,13bR)-8a-(hydroxymethyl)-4,4,6a,6b,13b-pentamethyl-11-(prop-1-en-2-yl)icosahydro-3H-cyclopenta[5,6]naphtho[2,1-f]isoquinolin-3-yl)sulfonyl)phenyl)acetic acid] | > 8000
3 | C=C(C)[C@@H]1CC[C@]2(CO)CC[C@]3(C)[C@H](CC[C@@H]4[C@@]5(C)CCN(S(=O)(=O)c6ccc(C(=O)O)cc6)C(C)(C)C5CC[C@]43C)[C@@H]12 (stereo partly drawn) [Example 20, 4-(((6aR,6bR,8aS,11R,11aR,11bR,13aR,13bR)-8a-(hydroxymethyl)-4,4,6a,6b,13b-pentamethyl-11-(prop-1-en-2-yl)icosahydro-3H-cyclopenta[5,6]naphtho[2,1-f]isoquinolin-3-yl)sulfonyl)benzoic acid] | 3100
4 | C=C(C)[C@@H]1CC[C@]2(CO)CC[C@]3(C)[C@H](CC[C@@H]4[C@@]5(C)CCN(S(=O)(=O)c6ccsc6C(=O)O)C(C)(C)C5CC[C@]43C)[C@@H]12 (stereo partly drawn) [Example 21, 3-(((6aR,6bR,8aS,11R,11aR,11bR,13aR,13bR)-8a-(hydroxymethyl)-4,4,6a,6b,13b-pentamethyl-11-(prop-1-en-2-yl)icosahydro-3H-cyclopenta[5,6]naphtho[2,1-f]isoquinolin-3-yl)sulfonyl)thiophene-2-carboxylic acid] | > 8000
5 | C=C(C)[C@@H]1CC[C@]2(C(=O)O)CC[C@]3(C)[C@H](CC[C@@H]4[C@@]5(C)CC(=O)N(c6ccc(C(=O)O)cc6)C(C)(C)[C@@H]5CC[C@]43C)[C@@H]12 [Example 22, (4aR,6aR,6bR,8aS,11R,11aR,11bR,13aR,13bR)-3-(4-carboxyphenyl)-4,4,6a,6b,13b-pentamethyl-2-oxo-11-(prop-1-en-2-yl)icosahydro-8aH-cyclopenta[5,6]naphtho[2,1-f]isoquinoline-8a-carboxylic acid] | > 3000
6 | C=C(C)[C@@H]1CC[C@]2(CNCCCN3CCS(=O)(=O)CC3)CC[C@]3(C)[C@H](CC[C@@H]4[C@@]5(C)CCN(C(=O)CC(C)(C)C(=O)O)C(C)(C)[C@@H]5CC[C@]43C)[C@@H]12 [Example 23, 4-((4aR,6aR,6bR,8aS,11R,11aR,11bR,13aR,13bR)-8a-(((3-(1,1-dioxidothiomorpholino)propyl)amino)methyl)-4,4,6a,6b,13b-pentamethyl-11-(prop-1-en-2-yl)icosahydro-3H-cyclopenta[5,6]naphtho[2,1-f]isoquinolin-3-yl)-2,2-dimethyl-4-oxobutanoic acid] | 390
7 | C=C(C)[C@@H]1CC[C@]2(CNCCCN3CCS(=O)(=O)CC3)CC[C@]3(C)[C@H](CC[C@@H]4[C@@]5(C)CCN(C(=O)CC(C)(C)CC(=O)O)C(C)(C)[C@@H]5CC[C@]43C)[C@@H]12 [Example 24, 5-((4aR,6aR,6bR,8aS,11R,11aR,11bR,13aR,13bR)-8a-(((3-(1,1-dioxidothiomorpholino)propyl)amino)methyl)-4,4,6a,6b,13b-pentamethyl-11-(prop-1-en-2-yl)icosahydro-3H-cyclopenta[5,6]naphtho[2,1-f]isoquinolin-3-yl)-3,3-dimethyl-5-oxopentanoic acid] | 120
8 | C=C(C)[C@@H]1CC[C@]2(CNCCCN3CCS(=O)(=O)CC3)CC[C@]3(C)[C@H](CC[C@@H]4[C@@]5(C)CCN(C(=O)CCC(C)(C)C(=O)O)C(C)(C)[C@@H]5CC[C@]43C)[C@@H]12 [Example 25, 5-((4aR,6aR,6bR,8aS,11R,11aR,11bR,13aR,13bR)-8a-(((3-(1,1-dioxidothiomorpholino)propyl)amino)methyl)-4,4,6a,6b,13b-pentamethyl-11-(prop-1-en-2-yl)hexadecahydro-1H-cyclopenta[5,6]naphtho[2,1-f]isoquinolin-3(2H,4H,13bH)-yl)-2,2-dimethyl-5-oxopentanoic acid] | 120
9 | C=C(C)[C@@H]1CC[C@]2(CNCCCN3CCS(=O)(=O)CC3)CC[C@]3(C)[C@H](CC[C@@H]4[C@@]5(C)CCN(C(=O)CC6(CC(=O)O)CCCC6)C(C)(C)[C@@H]5CC[C@]43C)[C@@H]12 [Example 26, 2-(1-(2-((4aR,6aR,6bR,8aS,11R,11aR,11bR,13aR,13bR)-8a-(((3-(1,1-dioxidothiomorpholino)propyl)amino)methyl)-4,4,6a,6b,13b-pentamethyl-11-(prop-1-en-2-yl)hexadecahydro-1H-cyclopenta[5,6]naphtho[2,1-f]isoquinolin-3(2H,4H,13bH)-yl)-2-oxoethyl)cyclopentyl)acetic acid] | 130
10 | C=C(C)[C@@H]1CC[C@]2(CNCCCN3CCS(=O)(=O)CC3)CC[C@]3(C)[C@H](CC[C@@H]4[C@@]5(C)CCN(C(=O)Cc6cccc(CC(=O)O)c6)C(C)(C)[C@@H]5CC[C@]43C)[C@@H]12 [Example 27, 2-(3-(2-((4aR,6aR,6bR,8aS,11R,11aR,11bR,13aR,13bR)-8a-(((3-(1,1-dioxidothiomorpholino)propyl)amino)methyl)-4,4,6a,6b,13b-pentamethyl-11-(prop-1-en-2-yl)hexadecahydro-1H-cyclopenta[5,6]naphtho[2,1-f]isoquinolin-3(2H,4H,13bH)-yl)-2-oxoethyl)phenyl)acetic acid] | 300
11 | C=C(C)[C@@H]1CC[C@]2(CNCCCN3CCS(=O)(=O)CC3)CC[C@]3(C)[C@H](CC[C@@H]4[C@@]5(C)CCN(C(=O)CCc6ccc(C(=O)O)cc6)C(C)(C)[C@@H]5CC[C@]43C)[C@@H]12 [Example 28, 4-(3-((4aR,6aR,6bR,8aS,11R,11aR,11bR,13aR,13bR)-8a-(((3-(1,1-dioxidothiomorpholino)propyl)amino)methyl)-4,4,6a,6b,13b-pentamethyl-11-(prop-1-en-2-yl)hexadecahydro-1H-cyclopenta[5,6]naphtho[2,1-f]isoquinolin-3(2H,4H,13bH)-yl)-3-oxopropyl)benzoic acid] | 940
12 | C=C(C)[C@@H]1CC[C@]2(CNCCCN3CCS(=O)(=O)CC3)CC[C@]3(C)[C@H](CC[C@@H]4[C@@]5(C)CCN(C(=O)/C=C/c6ccc(C(=O)O)cc6)C(C)(C)[C@@H]5CC[C@]43C)[C@@H]12 [Example 29, 4-((E)-3-((4aR,6aR,6bR,8aS,11R,11aR,11bR,13aR,13bR)-8a-(((3-(1,1-dioxidothiomorpholino)propyl)amino)methyl)-4,4,6a,6b,13b-pentamethyl-11-(prop-1-en-2-yl)hexadecahydro-1H-cyclopenta[5,6]naphtho[2,1-f]isoquinolin-3(2H,4H,13bH)-yl)-3-oxoprop-1-en-1-yl)benzoic acid] | 1590
13 | C=C(C)[C@@H]1CC[C@]2(CNCCCN3CCS(=O)(=O)CC3)CC[C@]3(C)[C@H](CC[C@@H]4[C@@]5(C)CCN(C(=O)c6ccc(C(=O)O)cc6)C(C)(C)[C@@H]5CC[C@]43C)[C@@H]12 [Example 30, 4-((4aR,6aR,6bR,8aS,11R,11aR,11bR,13aR,13bR)-8a-(((3-(1,1-dioxidothiomorpholino)propyl)amino)methyl)-4,4,6a,6b,13b-pentamethyl-11-(prop-1-en-2-yl)icosahydro-1H-cyclopenta[5,6]naphtho[2,1-f]isoquinoline-3-carbonyl)benzoic acid] | 110
14 | C=C(C)[C@@H]1CC[C@]2(CNCCCN3CCS(=O)(=O)CC3)CC[C@]3(C)[C@H](CC[C@@H]4[C@@]5(C)CCN(C(=O)/C=C/C(=O)O)C(C)(C)[C@@H]5CC[C@]43C)[C@@H]12 [Example 32, (E)-4-((4aR,6aR,6bR,8aS,11R,11aR,11bR,13aR,13bR)-8a-(((3-(1,1-dioxidothiomorpholino)propyl)amino)methyl)-4,4,6a,6b,13b-pentamethyl-11-(prop-1-en-2-yl)hexadecahydro-1H-cyclopenta[5,6]naphtho[2,1-f]isoquinolin-3(2H,4H,13bH)-yl)-4-oxobut-2-enoic acid] | 300
15 | C=C(C)[C@@H]1CC[C@]2(CNCCCN3CCS(=O)(=O)CC3)CC[C@]3(C)[C@H](CC[C@@H]4[C@@]5(C)CCN(CC(=O)O)C(C)(C)[C@@H]5CC[C@]43C)[C@@H]12 [Example 33, 2-((4aR,6aR,6bR,8aS,11R,11aR,11bR,13aR,13bR)-8a-(((3-(1,1-dioxidothiomorpholino)propyl)amino)methyl)-4,4,6a,6b,13b-pentamethyl-11-(prop-1-en-2-yl)hexadecahydro-1H-cyclopenta[5,6]naphtho[2,1-f]isoquinolin-3(2H,4H,13bH)-yl)acetic acid] | > 3000
